Results reported in ChEMBL document CHEMBL4414589, “Development of High-Throughput Fluorescent-Based Screens to Accelerate Discovery of P2X Inhibitors from Animal Venoms” (J Nat Prod, 2019).

What was measured:
Format in all cases: cell-based
P2X purinoceptor 7 = target: T1, P2X purinoceptor 7 (Homo sapiens, UniProt Q99572); assay: Antagonist activity at human P2X7R transfected in HEK293 cells assessed as inhibition of ATP-mediated calcium influx measured after 10 mins by YOPRO-1 dye uptake assay
T1 sequence (Q99572 whole entry): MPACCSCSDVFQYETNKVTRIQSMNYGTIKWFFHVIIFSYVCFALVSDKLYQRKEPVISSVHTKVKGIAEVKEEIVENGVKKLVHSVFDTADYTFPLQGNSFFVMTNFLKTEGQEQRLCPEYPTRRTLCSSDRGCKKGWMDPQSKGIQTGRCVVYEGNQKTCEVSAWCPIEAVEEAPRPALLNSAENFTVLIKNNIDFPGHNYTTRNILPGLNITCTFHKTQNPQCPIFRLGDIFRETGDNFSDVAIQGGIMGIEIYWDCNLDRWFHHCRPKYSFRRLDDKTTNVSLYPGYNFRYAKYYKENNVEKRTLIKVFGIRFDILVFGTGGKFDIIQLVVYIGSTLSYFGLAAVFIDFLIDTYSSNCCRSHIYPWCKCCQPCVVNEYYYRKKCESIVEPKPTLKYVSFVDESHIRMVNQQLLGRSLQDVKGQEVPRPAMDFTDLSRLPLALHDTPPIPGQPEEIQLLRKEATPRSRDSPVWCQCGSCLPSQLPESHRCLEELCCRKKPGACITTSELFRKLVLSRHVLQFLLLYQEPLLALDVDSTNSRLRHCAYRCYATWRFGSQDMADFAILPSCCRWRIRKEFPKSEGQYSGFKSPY

P2X purinoceptor 4 [1] = target: T2, P2X purinoceptor 4 (Homo sapiens, UniProt Q99571); assay: Antagonist activity at human P2X4R transfected in 1321N1 cells assessed as inhibition of ATP-mediated calcium influx measured after 10 mins by Fura-2AM assay
T2 sequence (Q99571 whole entry): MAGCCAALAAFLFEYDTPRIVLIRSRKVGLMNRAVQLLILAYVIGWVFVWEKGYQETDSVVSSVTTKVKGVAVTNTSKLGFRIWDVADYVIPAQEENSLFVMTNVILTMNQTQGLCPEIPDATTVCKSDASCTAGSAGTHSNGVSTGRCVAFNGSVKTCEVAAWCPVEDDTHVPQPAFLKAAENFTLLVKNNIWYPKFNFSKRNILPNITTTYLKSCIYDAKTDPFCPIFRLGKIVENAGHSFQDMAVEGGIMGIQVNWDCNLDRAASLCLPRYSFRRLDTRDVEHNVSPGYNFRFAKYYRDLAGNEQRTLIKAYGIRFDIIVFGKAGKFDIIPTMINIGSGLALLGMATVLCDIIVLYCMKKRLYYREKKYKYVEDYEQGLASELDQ

P2X purinoceptor 4 [2] = target: T2, P2X purinoceptor 4; assay: Antagonist activity at human P2X4R transfected in HEK293 cells assessed as inhibition of ATP-mediated calcium influx measured after 10 mins by YOPRO-1 dye uptake assay

IC50 (P2X purinoceptor 4 [1])	IC50 (P2X purinoceptor 4 [2])	SMILES	IC50 (P2X purinoceptor 7)
		CC(C)c1cc(Br)c(NC(=O)Nc2cccnc2)c(Br)c1	Not Active
		Cc1ccc(S(=O)(=O)N2c3ccccc3Oc3ccccc32)cc1	Not Active
		O=C1CN=C(c2cccc(Br)c2)c2oc3ccccc3c2N1	Not Active
Not Active	Not Active	O=C(CC12CC3CC(CC(C3)C1)C2)Nc1cccc2nc(NCCNCCO)ccc12	
